This passage reports Activity and IC50 results from ChEMBL document CHEMBL6103641, “Palladium-Catalyzed Late-Stage Functionalization of Natural Antitumor Drug: Synthesis and Bioactivity of 5-Aryl Camptothecins” (J Nat Prod, 2025).

For assay [1], the system named is HCT-116. The experiment in a line: Induction of apoptosis in human HCT-116 cells at 2 uM incubated for 24 hrs by Annexin V-FITC/PI staining based flow cytometric analysis. Type of assay: functional, cell-based.
For assay [2], the system named is MCF7. In words: Cytotoxicity against human MCF7 cells assessed as inhibition of cell viability incubated for 24 hrs by MTT assay. To be noted: MCF7, 24 h. Format: functional, cell-based.
In assay [3] the test system is HCT-116. In words: Antiproliferative activity against human HCT-116 cells assessed as inhibition of colony growth at 2 uM incubated for 24 hrs by crystal violet staining based analysis. Format: functional, cell-based.
The test system of assay [4] is HCT-116. The experiment in a line: Induction of apoptosis in human HCT-116 cells assessed as upregulation of Bax expression at 0.25 to 2 uM incubated for 24 hrs by western blot analysis. To be noted: dose 0.25-2 µM. Type of assay: functional, cell-based.
Assay [5] concerns HCT-116. The experiment in a line: Cytotoxicity against human HCT-116 cells assessed as inhibition of cell viability incubated for 24 hrs by MTT assay. To be noted: HCT-116, 24 h. Type of assay: functional, cell-based. Background: Tetrazolium dyes change colour on reduction, which living cells bring about.
For assay [6], the system named is HCT-116. In words: Induction of apoptosis in human HCT-116 cells assessed as downregulation of Bcl-2 expression at 0.25 to 2 uM incubated for 24 hrs by western blot analysis. Format: functional, cell-based. To be noted: dose 0.25-2 µM. A general note: In western blotting, separated proteins are transferred to a membrane and probed.
In assay [7] the test system is HCT-116. In words: Induction of cell cycle arrest in human HCT-116 cells assessed as accumulation at G2/M phase at 0.25 to 2 uM incubated for 24 hrs by PI staining based flow cytometry. Format: functional. To be noted: dose 0.25-2 µM. (In general: Flow cytometry measures light scatter and fluorescence of single cells or particles in a stream.)
Assay [8] deals with HCT-116. In words: Induction of apoptosis in human HCT-116 cells assessed as upregulation of cleaved caspase-3 expression at 0.25 to 2 uM incubated for 24 hrs by western blot analysis. Format: functional, cell-based. To be noted: dose 0.25-2 µM.
For assay [9], the system named is A549. The experiment in a line: Cytotoxicity against human A549 cells assessed as inhibition of cell viability incubated for 24 hrs by MTT assay. To be noted: A549, 24 h. Format: functional, cell-based.
Assay [10] relates to HCT-116. In words: Antiproliferative activity against human HCT-116 cells assessed as inhibition of colony growth incubated for 24 hrs by crystal violet staining based analysis. Type of assay: functional, cell-based. To be noted: dose 0.25-2 µM.
For assay [11], the system named is MCF7. In words: Induction of cell cycle arrest in human MCF7 cells assessed as accumulation at G2/M phase at 0.25 to 2 uM incubated for 24 hrs by PI staining based flow cytometry. Format: functional. To be noted: dose 0.25-2 µM.
In assay [12] the test system is MCF7. The experiment in a line: Induction of apoptosis in human MCF7 cells at 2 uM incubated for 24 hrs by Annexin V-FITC/PI staining based flow cytometric analysis. Format: functional, cell-based.
For assay [13], the system named is MCF7. In words: Antiproliferative activity against human MCF7 cells assessed as inhibition of colony growth incubated for 24 hrs by crystal violet staining based analysis. Type of assay: functional, cell-based. To be noted: dose 0.25-2 µM.
In assay [14] the test system is MCF7. The experiment in a line: Antiproliferative activity against human MCF7 cells assessed as inhibition of colony growth at 2 uM incubated for 24 hrs by crystal violet staining based analysis. Type of assay: functional, cell-based.

Active and inactive are the calls of the source. The calls are words filed in the database; no cut-off is given here. Some results are limits rather than exact numbers.

The term IC50 denotes the concentration needed to halve the response being measured. Consider `CC[C@@]1(O)C(=O)OCc2c1cc1n(c2=O)[C@@H](c2c(OC)cccc2OC)c2cc3ccccc3nc2-1`, for which the Activity result in [1] was “Active; Superior Activity Compared To Camptothecin Observed”; in assay [3] it was “Active; Superior Activity Compared To Camptothecin Observed”; in assay [10] it was “Dose-dependent-effect”. Besides, the concentration for half-maximal inhibition (IC50) in assay [2] is 400 nM; in assay [5], 50 nM; in assay [9] it was > 10000 nM. Moreover, the outcome in [4], in [6], in assay [7] and in [8] was Active.
In the case of `CC[C@@]1(O)C(=O)OCc2c1cc1n(c2=O)[C@H](c2cc(C)cc(C)c2)c2cc3ccccc3nc2-1`, the figures for the IC50 in [2], in assay [5] and in assay [9] were 40 nM, > 10000 nM and > 10000 nM, respectively. Further, in [11], the result was Active. In addition, the Activity entry in [12] is “Active; Superior Activity Compared To Camptothecin Observed”; in assay [13], “Dose-dependent-effect”; in [14], “Active; Superior Activity Compared To Camptothecin Observed”.
